Measured values taken from the NIST ThermoML archive (doi:10.1016/j.jct.2010.04.001).
“And” between values parts separate entries of the source, which are not always exact repeats. Equal values may be shown once.

Settings: Crystal, Calculated from knudsen effusion weight loss

O=C(c1ccc[nH]1)C(Cl)(Cl)Cl [2-trichloroacetyl-1H-pyrrole]
Settings	vapor or sublimation pressure
295.12 K	0.000103 kPa and 9.92e-05 kPa and 0.000101 kPa
297.17 K	0.000132 kPa and 0.000129 kPa
299.22 K	0.000169 kPa and 0.000165 kPa and 0.000162 kPa
301.14 K	0.000213 kPa and 0.000218 kPa
303.23 K	0.000274 kPa and 0.000272 kPa and 0.000268 kPa
305.2 K	0.000344 kPa and 0.000336 kPa and 0.000335 kPa
307.1 K	0.000434 kPa and 0.00043 kPa and 0.000424 kPa
309.13 K	0.000539 kPa and 0.000531 kPa and 0.000527 kPa
311.21 K	0.000674 kPa and 0.000661 kPa and 0.000652 kPa
313.11 K	0.000861 kPa and 0.000843 kPa and 0.000837 kPa
315.16 K	0.00106 kPa and 0.001043 kPa and 0.001028 kPa
317.2 K	0.001327 kPa and 0.001289 kPa and 0.00127 kPa

O=C(c1ccc[nH]1)C(F)(F)F [2-trifluoroacetylpyrrole]
Settings	vapor or sublimation pressure
263.19 K	0.000433 kPa and 0.000414 kPa and 0.000406 kPa
264.14 K	0.00048 kPa and 0.000469 kPa
265.11 K	0.000533 kPa and 0.000531 kPa
266.12 K	0.000597 kPa and 0.00064 kPa and 0.000623 kPa
267.12 K	0.000716 kPa and 0.00069 kPa and 0.00067 kPa
268.12 K	0.000809 kPa and 0.000796 kPa and 0.000771 kPa
269.11 K	0.0009 kPa and 0.000894 kPa and 0.000866 kPa
270.11 K	0.001022 kPa and 0.000993 kPa
271.13 K	0.001147 kPa and 0.00113 kPa and 0.001101 kPa
